# Target: T1, human mPGES-1 (Homo sapiens, UniProt O14684)
# T1 sequence (O14684 1-152): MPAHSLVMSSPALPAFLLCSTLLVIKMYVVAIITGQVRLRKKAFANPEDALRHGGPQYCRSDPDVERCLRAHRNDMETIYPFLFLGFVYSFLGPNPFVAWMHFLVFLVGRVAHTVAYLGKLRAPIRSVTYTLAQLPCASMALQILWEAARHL
# Assay: Microsomal prostaglandin E synthase biochemical assay
# Details: microsome preparation containing human mPGES-1; PGH2 10.8 μM, GSH 2.5 mM, pH 6.8; PGE2 quantified by HTRF; average of at least n=2
# Protocol: Compounds were tested as inhibitors of microsomal prostaglandin E synthase activity in microsomal prostaglandin E synthase assays and whole cell assays. These assays measure prostaglandin E2 (PGE2) synthesis which is taken as a measure of prostaglandin E synthase activity. Microsomal prostaglandin E synthase biochemical assays used microsomal prostaglandin E synthase-1 in microsomal preparations. The source of the microsomes can be for example interleukin-1β-stimulated human A549 cells (which express human mPGES-1) or Sf9 cells transfected with plasmids encoding human mPGES-1 cDNA.
# A solution of test compound was added to a diluted microsome preparation containing human mPGES-1 and pre-incubated for 15 minutes in potassium phosphate buffer pH 6.8 with cofactor glutathione (GSH). Corresponding solutions without test compound were used as positive controls, and corresponding solutions without test compound and without microsomes were used as negative controls. The enzymatic reaction was then started by addition of the substrate PGH2 in an organic solution (dry acetonitrile).
# The reaction was stopped after one minute by adding an acidic solution (pH 1.9) of ferric chloride and citrate (final concentrations 7 mM and 47 mM respectively), by which the PGH2 was sequestered (the PGH2 is reduced to mainly 12-hydroxy heptadecatrineoic acid (12-HHT) which is not detected by the subsequent PGE2 detection step). The resulting solution was then pH neutralized by addition of potassium phosphate buffer, prior to diluting an aliquot of the resulting solution in a weak potassium phosphate buffer (50 mM, pH 6.8) containing 0.2% BSA (w/v). […] The PGE2 formed was quantified by use of a commercial HTRF based kit (catalogue #62PG2PEC or #62P2APEC from Cisbio International). 100% activity was defined as the PGE2 production in positive controls subtracted by the PGE2 production in the negative controls. IC50 values were then determined using standard procedures.
row,IC50 [nM],Structure (SMILES)
1,320,"NS(=O)(=O)c1cc(CO)ccc1S(=O)(=O)NC(=O)c1ccc(-c2cc3ccccc3o2)cc1 [Example 161, 4-(Benzofuran-2-yl)-N-(4-(hydroxymethyl)-2-sulfamoylphenylsulfonyl)benzamide]"
2,60,"CC(C)(C)C#Cc1ccc(C(=O)NS(=O)(=O)c2ccccc2S(N)(=O)=O)cc1F [Example 73, 4-(3,3-Dimethylbut-1-ynyl)-3-fluoro-N-(2-sulfamoylphenylsulfonyl)benzamide]"
3,45,"CC(C)Oc1cc(C(=O)NS(=O)(=O)c2ccccc2S(N)(=O)=O)ccc1C#CC(C)(C)C [Example 128, 4-(3,3-Dimethylbut-1-ynyl)-3-isopropoxy-N-(2-sulfamoylphenylsulfonyl)benzamide]"
4,170,"Cc1cc(C(=O)NS(=O)(=O)c2ccccc2S(N)(=O)=O)ccc1Br [Example 12, 4-Bromo-3-methyl-N-(2-sulfamoylphenyl)sulfonyl-benzamide]"
5,7000,"CC(C)Oc1cc(C(=O)NS(=O)(=O)c2ccccc2S(N)(=O)=O)ccc1C#CC(C)(C)O [Example 129, 4-(3-Hydroxy-3-methylbut-1-ynyl)-3-isopropoxy-N-(2-sulfamoylphenylsulfonyl)-benzamide]"
6,20,"CC(C)Oc1cc(C(=O)NS(=O)(=O)c2ccccc2S(N)(=O)=O)ccc1C#CC1CCCC1 [Example 130, 4-(Cyclopentylethynyl)-3-isopropoxy-N-(2-sulfamoylphenylsulfonyl)benzamide]"
7,590,"NS(=O)(=O)c1ccccc1S(=O)(=O)NC(=O)c1ccc(F)c(Br)c1 [Example 20, 3-Bromo-4-fluoro-N-(2-sulfamoylphenyl)sulfonyl-benzamide]"
8,20,"NS(=O)(=O)c1ccccc1S(=O)(=O)NC(=O)c1ccc(-c2cc3ccccc3o2)c2ccccc12 [Example 62, 4-(Benzofuran-2-yl)-N-(2-sulfamoylphenylsulfonyl)-1-naphthamide]"
9,82,"NS(=O)(=O)c1ccccc1S(=O)(=O)NC(=O)c1sc2cc(Cl)ccc2c1Cl [Example 39, 3,6-Dichloro-N-(2-sulfamoylphenyl)sulfonyl-benzothiophene-2-carboxamide]"
10,170,"CC(C)(C)C#Cc1ccc(C(=O)NS(=O)(=O)c2ccccc2S(N)(=O)=O)c(F)c1 [Example 84, 4-(3,3-Dimethylbut-1-ynyl)-2-fluoro-N-(2-sulfamoylphenylsulfonyl)benzamide]"
11,5400,"NS(=O)(=O)c1ccccc1S(=O)(=O)NC(=O)c1ccc(Cl)cc1Cc1ccccc1 [Example 24, 2-Benzyl-4-chloro-N-(2-sulfamoylphenyl)sulfonyl-benzamide]"
12,1100,"NS(=O)(=O)c1ccccc1S(=O)(=O)NC(=O)c1ccc(-c2cccc(C(F)(F)F)c2)o1 [Example 37, N-(2-Sulfamoylphenyl)sulfonyl-5-[3-(trifluoromethyl)phenyl]furan-2-carboxamide]"
13,2100,"NS(=O)(=O)c1ccccc1S(=O)(=O)NC(=O)[C@H]1CC[C@@H](c2cc3ccccc3o2)CC1 [Example 105, (1s,4s)-4-(Benzofuran-2-yl)-N-(2-sulfamoylphenylsulfonyl)cyclohexanecarboxamide]"
14,8700,"NS(=O)(=O)c1ccccc1S(=O)(=O)NC(=O)c1cccc(OC(F)F)c1 [Example 19, 3-(Difluoromethoxy)-N-(2-sulfamoylphenyl)sulfonyl-benzamide]"
15,15,"NS(=O)(=O)c1ccccc1S(=O)(=O)NC(=O)c1ccc(C#CC2CCCC2)c(F)c1 [Example 146, 4-(Cyclopentylethynyl)-3-fluoro-N-(2-sulfamoylphenylsulfonyl)benzamide]"
16,21000,"CC(C)(O)c1cc2cc(C(=O)NS(=O)(=O)c3ccccc3S(N)(=O)=O)ccc2o1 [Example 124, 2-(2-Hydroxypropan-2-yl)-N-(2-sulfamoylphenylsulfonyl)benzofuran-5-carboxamide]"
17,63,"NS(=O)(=O)c1ccccc1S(=O)(=O)NC(=O)c1ccc(C#CC2CC2)c2c1OC(F)(F)O2 [Example 159, 7-(Cyclopropylethynyl)-2,2-difluoro-N-(2-sulfamoylphenylsulfonyl)-benzo[d][1,3]dioxole-4-carboxamide]"
18,49,"CC(C)Oc1cc(C(=O)NS(=O)(=O)c2ccccc2S(N)(=O)=O)cnc1C#CC1CC1 [Example 142, 6-(cyclopropylethynyl)-5-isopropoxy-N-(2-sulfamoylphenylsulfonyl)nicotinamide]"

row,IC50 [nM],Structure (SMILES)
1,450,"Cc1cc(-c2cc3ccccc3o2)cc(C)c1C(=O)NS(=O)(=O)c1ccccc1S(N)(=O)=O [Example 52, 4-(Benzofuran-2-yl)-2,6-dimethyl-N-(2-sulfamoylphenylsulfonyl)benzamide]"
2,1400,"NS(=O)(=O)c1ccccc1S(=O)(=O)NC(=O)c1ccc(Br)cc1F [Example 14, 4-Bromo-2-fluoro-N-(2-sulfamoylphenyl)sulfonyl-benzamide]"
3,79,"COc1c(-c2cc3ccccc3o2)ccc(C(=O)NS(=O)(=O)c2ccccc2S(N)(=O)=O)c1C [Example 69, 4-(Benzofuran-2-yl)-3-methoxy-2-methyl-N-(2-sulfamoylphenylsulfonyl)benzamide]"
4,2200,"NS(=O)(=O)c1ccccc1S(=O)(=O)NC(=O)c1csc2ccccc12 [Example 40, N-(2-Sulfamoylphenyl)sulfonylbenzothiophene-3-carboxamide]"
5,5700,"NS(=O)(=O)c1ccccc1S(=O)(=O)NC(=O)c1ccc2oc(C3CCCC3)cc2c1 [Example 78, 2-Cyclopentyl-N-(2-sulfamoylphenylsulfonyl)benzofuran-5-carboxamide]"
6,5200,"NS(=O)(=O)c1ccccc1S(=O)(=O)NC(=O)CC12CC3CC(CC(C3)C1)C2 [Example 16, 2-(1-Adamantyl)-N-(2-sulfamoylphenyl)sulfonyl-acetamide]"
7,62,"C=C(C)C#Cc1ccc(C(=O)NS(=O)(=O)c2ccccc2S(N)(=O)=O)cc1 [Example 54, 4-(3-Methylbut-3-en-1-ynyl)-N-(2-sulfamoylphenylsulfonyl)benzamide]"
8,13000,"NS(=O)(=O)c1ccccc1S(=O)(=O)NC(=O)c1ccc(C#Cc2ccccn2)nc1 [Example 94, 6-(Pyridin-2-ylethynyl)-N-(2-sulfamoylphenylsulfonyl)nicotinamide]"
9,23,"NS(=O)(=O)c1ccccc1S(=O)(=O)NC(=O)c1ccc(-c2nc3ccccc3s2)cc1 [Example 5, 4-Benzothiazol-2-yl-N-(2-sulfamoylphenyl)sulfonyl-benzamide]"
10,1500,"CCCc1c(C(=O)NS(=O)(=O)c2ccccc2S(N)(=O)=O)cnn1-c1cc(Cl)cc(Cl)c1 [Example 38, 1-(3,5-Dichlorophenyl)-5-propyl-N-(2-sulfamoylphenyl)sulfonyl-pyrazole-4-carboxamide]"
11,96,"Cc1nc(-c2cc3ccccc3o2)sc1C(=O)NS(=O)(=O)c1ccccc1S(N)(=O)=O [Example 63, 2-(Benzofuran-2-yl)-4-methyl-N-(2-sulfamoylphenylsulfonyl)thiazole-5-carboxamide]"
12,320,"NS(=O)(=O)c1ccccc1S(=O)(=O)NC(=O)c1ccc(-c2ccccc2)cc1 [Example 31, 4-Phenyl-N-(2-sulfamoylphenyl)sulfonyl-benzamide]"
13,11,"CC(C)Oc1cc(C(=O)NS(=O)(=O)c2ccccc2S(N)(=O)=O)cnc1C#CC1CCCCC1 [Example 144, 6-(Cyclohexylethynyl)-5-isopropoxy-N-(2-sulfamoylphenylsulfonyl)nicotinamide]"
14,16,"COc1c(-c2cc3ccccc3o2)ccc(C(=O)NS(=O)(=O)c2ccccc2S(N)(=O)=O)c1F [Example 87, 4-(Benzofuran-2-yl)-2-fluoro-3-methoxy-N-(2-sulfamoylphenylsulfonyl)benzamide]"
15,6.8,"COc1cc(C(=O)NS(=O)(=O)c2ccccc2S(N)(=O)=O)cnc1C#Cc1ccc(C(F)(F)F)cc1 [Example 139, 5-Methoxy-N-(2-sulfamoylphenylsulfonyl)-6-((4-(trifluoromethyl)phenyl)-ethynyl)nicotinamide]"
16,4600,"Cn1c(C(=O)NS(=O)(=O)c2ccccc2S(N)(=O)=O)cc2ccccc21 [Example 33, 1-Methyl-N-(2-sulfamoylphenyl)sulfonyl-indole-2-carboxamide]"
17,28,"CC(C)(C)C#Cc1ccc(C(=O)NS(=O)(=O)c2ccccc2S(N)(=O)=O)cc1 [Example 43, 4-(3,3-Dimethylbut-1-ynyl)-N-(2-sulfamoylphenylsulfonyl)benzamide]"

row,Structure (SMILES),IC50 [nM]
1,"COC(C)(C)CCOc1cc(C(=O)NS(=O)(=O)c2ccccc2S(N)(=O)=O)ccc1-c1cc2ccccc2o1 [Example 145, 4-(Benzofuran-2-yl)-3-(3-methoxy-3-methylbutoxy)-N-(2-sulfamoylphenylsulfonyl)-benzamide]",23
